Consider eight compounds from article PMC3280956, “DOGS: Reaction-Driven de novo Design of Bioactive Compounds” (PLoS Computational Biology, 2012).

For one assay, the target named is γ-secretase (Homo sapiens, UniProt P49768). Put plainly: Aβ sandwich ELISA in supernatants of CHO cells overexpressing human APP and presenilin-1. Conditions: for Modulation of γ-secretase activity (type): Aβ38/40/42 ELISA, 0.1-40 μM. It is filed as cell-based. As to the method:
One-step reactions yielded the desired products in both cases. […] Synthesized compounds were tested for their ability to modulate the γ-secretase product spectrum as previously described. CHO cells with stable overexpression of human APP and presenilin-1 were treated with increasing concentrations of 3 and 4. Subsequently, concentrations of secreted Aβ peptides were detected in cell supernatants by sandwich ELISA using C-terminus specific antibodies that distinguish between Aβ38, Aβ40, and Aβ42 peptide species. […] This pattern of inverse γ-secretase modulation has previously been observed, e.g. with derivatives of the non-steroidal anti-inflammatory drug indomethacin [35]. […] Compounds 3 and 4 can serve as tool compounds and – more importantly – as starting points for an optimization of the pharmacological profile by structural modification. […]
Figure S5. Modulation of γ-secretase activity by designed compounds 3 (A) and 4 (B). Both […]
higher levels of Aβ42. Concentrations of secreted Ab peptides were detected in cell supernatants by sandwich ELISA using C-terminus specific antibodies that distinguish between Aβ38, Aβ40, and Aβ42 peptide species as previously described.
A general note: In an ELISA, binding on a coated surface is turned into a signal by an enzyme label.

A further assay deals with Trypsin. The settings on record: cited from earlier work.
In another assay the test system is Thrombin. Conditions: cited from earlier work.
A further assay concerns the target T1, hH4R (Homo sapiens, UniProt Q9H3N8).
T1 construct: made in house; host or cells: insect Sf9 cells (membrane preparations)
Put plainly: Competitive binding, displacement of [3H]histamine, Sf9 membranes expressing hH4R. Conditions: three measurements. The method, then:
(§1) In order to test for the hypothesis that a combination of the features – as found in compound 7 – might lead to hH4R affinity, compound 7 was selected for synthesis and testing. […] Binding affinity of compound 7 was determined in a competitive binding assay by measuring displacement of radioactively labeled [^3H]histamine bound to hH4R [42]. Membrane preparations of insect Sf9 cells expressing hH4R together with G-protein subunits Gαi2 and Gβ1γ2 were performed to yield the protein. A similar assay was used to measure the activity on hH3R (reference ligand: [^3H]N ^α-methylhistamine).

A further assay has as its target 5-HT1D receptor (Homo sapiens, UniProt P28221). Put plainly: Cerep GPCR panel, antagonistic effect on 5-HT1D receptor. It is filed as cell-based.
In a further assay the target is hH3R (Homo sapiens, UniProt Q9Y5N1). In words: Competitive binding, displacement of [3H]Nα-methylhistamine at hH3R. Conditions: averaged over four distinct tests. The method, then:
as §1

The next assay deals with other GPCRs in the panel. Put plainly: Cerep panel, other human GPCRs. The settings on record: remaining GPCRs of the 30-receptor panel. It is filed as cell-based.
A further assay addresses δ2 opioid receptor (Homo sapiens, UniProt P41143). In words: Cerep GPCR panel, antagonistic effect on δ2 opioid receptor. It is filed as cell-based. Conditions: n = 2.
The target of a further assay is κ opioid receptor (Homo sapiens, UniProt P41145).
Chain of κ opioid receptor (P41145 whole entry): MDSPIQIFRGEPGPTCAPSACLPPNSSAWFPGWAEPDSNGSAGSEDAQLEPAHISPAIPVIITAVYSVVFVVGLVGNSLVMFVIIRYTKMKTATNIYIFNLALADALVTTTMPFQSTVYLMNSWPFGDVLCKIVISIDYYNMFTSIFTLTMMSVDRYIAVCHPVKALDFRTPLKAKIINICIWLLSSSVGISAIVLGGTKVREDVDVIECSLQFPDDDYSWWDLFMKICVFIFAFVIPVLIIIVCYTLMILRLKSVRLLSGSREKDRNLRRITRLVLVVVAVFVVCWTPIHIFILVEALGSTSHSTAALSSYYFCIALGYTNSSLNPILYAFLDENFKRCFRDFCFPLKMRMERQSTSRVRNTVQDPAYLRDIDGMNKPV
Another assay deals with Trypsin (bovine). Details: method as in PMID 15771442. Conditions: cited from earlier work.

Chain of 5-HT1D receptor (P28221 whole entry): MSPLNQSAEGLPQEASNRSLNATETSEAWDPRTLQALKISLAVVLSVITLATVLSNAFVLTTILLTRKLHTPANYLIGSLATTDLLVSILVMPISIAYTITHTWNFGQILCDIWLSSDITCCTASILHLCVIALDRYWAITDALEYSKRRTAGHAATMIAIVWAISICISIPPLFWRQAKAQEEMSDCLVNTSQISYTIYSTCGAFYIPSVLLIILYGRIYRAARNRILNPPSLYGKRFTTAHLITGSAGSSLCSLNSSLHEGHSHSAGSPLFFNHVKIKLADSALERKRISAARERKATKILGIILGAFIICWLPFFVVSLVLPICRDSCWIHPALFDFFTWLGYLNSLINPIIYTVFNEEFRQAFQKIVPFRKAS
T1 sequence (Q9H3N8 whole entry): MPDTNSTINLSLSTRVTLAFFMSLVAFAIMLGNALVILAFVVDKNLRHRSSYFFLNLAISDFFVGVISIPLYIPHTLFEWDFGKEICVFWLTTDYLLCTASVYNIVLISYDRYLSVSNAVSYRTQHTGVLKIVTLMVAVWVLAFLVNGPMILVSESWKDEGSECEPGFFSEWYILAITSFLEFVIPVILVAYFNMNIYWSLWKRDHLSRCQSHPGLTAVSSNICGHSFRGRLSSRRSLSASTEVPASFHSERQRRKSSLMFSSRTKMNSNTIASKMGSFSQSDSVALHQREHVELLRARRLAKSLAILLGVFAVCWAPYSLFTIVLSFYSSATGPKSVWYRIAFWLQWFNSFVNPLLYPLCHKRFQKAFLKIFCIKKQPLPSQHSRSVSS
Chain of hH3R (Q9Y5N1 whole entry): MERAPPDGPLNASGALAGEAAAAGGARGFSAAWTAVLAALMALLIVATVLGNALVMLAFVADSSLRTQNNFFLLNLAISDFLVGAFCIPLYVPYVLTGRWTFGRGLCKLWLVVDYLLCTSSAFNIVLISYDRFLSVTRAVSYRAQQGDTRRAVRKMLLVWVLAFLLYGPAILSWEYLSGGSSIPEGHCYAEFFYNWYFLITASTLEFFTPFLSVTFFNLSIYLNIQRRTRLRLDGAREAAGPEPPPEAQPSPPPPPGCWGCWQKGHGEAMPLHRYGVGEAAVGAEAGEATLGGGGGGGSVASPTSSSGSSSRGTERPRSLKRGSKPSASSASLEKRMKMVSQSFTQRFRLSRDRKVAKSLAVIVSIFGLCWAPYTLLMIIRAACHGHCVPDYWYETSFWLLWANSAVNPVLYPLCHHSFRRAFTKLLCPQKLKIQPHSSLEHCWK
Chain of δ2 opioid receptor (P41143 whole entry): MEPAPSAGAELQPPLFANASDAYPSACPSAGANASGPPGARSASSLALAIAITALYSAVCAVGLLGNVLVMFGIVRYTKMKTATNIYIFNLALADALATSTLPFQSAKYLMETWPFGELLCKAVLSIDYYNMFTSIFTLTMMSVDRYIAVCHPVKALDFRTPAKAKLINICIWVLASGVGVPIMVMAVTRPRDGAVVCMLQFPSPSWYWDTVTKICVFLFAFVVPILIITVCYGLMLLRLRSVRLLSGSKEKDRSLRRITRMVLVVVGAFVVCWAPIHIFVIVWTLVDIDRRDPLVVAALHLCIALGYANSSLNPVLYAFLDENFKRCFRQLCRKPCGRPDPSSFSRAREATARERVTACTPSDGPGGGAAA

On to `COc1cc(-n2c(C)ccc2C)c(OC)cc1NC(=O)c1ccccc1` [Compound 3], for which the “Modulation of γ-secretase activity (type)” value at γ-secretase is on record as “inverse modulators”. For the same compound, the Aβ38 levels entry on γ-secretase (secreted Aβ38, CHO cells, increasing concentrations) is “decrease”. Besides, the Aβ42 levels result on γ-secretase (secreted Aβ42, CHO cells, increasing concentrations) is on record as “dose-dependent increase”.

Consider `N=C(N)Nc1ccc(C(=O)Oc2ccc(SCCN3C(=O)CCC3=O)cc2)cc1` [Patamostat], for which the IC50 in the assay with Trypsin is 39 nM; in the assay with Thrombin, 1900 nM.

As to `COc1ccc(N2CCN(C(=O)c3ccc(-c4cc(C(F)(F)F)ccc4Cl)o3)CC2)cc1` [Compound 4], the “Modulation of γ-secretase activity (type)” value on γ-secretase is reported as “inverse modulators”.

As to `CN(C)C(=O)COC(=O)Cc1ccc(OC(=O)c2ccc(NC(=N)N)cc2)cc1` [Camostat], on Trypsin, the Ki is 50.6 nM.

In the case of `Clc1cccc(-c2cn(CCOCCN3CCNCC3)nn2)c1` [Compound 7], the Ki on hH4R turned out to be 436000 ± 137000 nM; at hH3R, 466000 ± 209000 nM. The “residual activity of the receptor” value worked out at 62% at 5-HT1D receptor (antagonistic effect, n = 2) and 76% on δ2 opioid receptor. For the same compound, the “response at other GPCRs in the panel” value in the assay with other GPCRs in the panel is recorded as “only weak responses in the single digit or low double-digit percent range”. In addition, the “agonistic effect, % of the effect of the reference agonist U50488” value at κ opioid receptor turned out to be 21%.

`CC1=CCN(C(=O)C(Cc2cccc(C(=N)N)c2)NS(=O)(=O)c2ccc3c(c2)CN(C)CC3)C(C(=O)O)C1` (stereo not drawn) [UK-156406]: the Ki is 26 nM at Trypsin and 0.46 nM at Thrombin.

`CSc1ccc2c(c1)C(N1CCN(C)CC1)Cc1ccccc1S2` (stereo not drawn) [methiothepin, reference compound]: on 5-HT1D receptor (reference compound), the concentration for half-maximal inhibition (IC50) turned out to be 1100 nM.

As to `CN[C@H](Cc1ccccc1)C(=O)N1CCC[C@H]1C(=O)N[C@H](C=O)CCCN=C(N)N` [Efegatran], the values for the Ki on Trypsin (bovine) and on Thrombin were 9.1 nM and 18 nM, respectively.

As a reminder, the IC50 is the concentration needed to halve the response being measured. By Ki is commonly meant the equilibrium dissociation constant of an inhibitor or competing ligand from its target.
